Key:
[1] = Study KAR5585-101 Part 1 (SAD): plasma pharmacokinetics after a single oral dose of KAR5585, fasting and fed (incl. dose proportionality and food effect); settings: for Vd/F / half-life / Tmax / AUC(0-inf) / AUC / concentration at 12 h / Cmax: human, plasma, po; for Vd/F: Vz/F; for AUC: AUC0-tau
[2] = Cardiac conduction (QTcF) in healthy adult subjects; assay type: in vivo, human
[3] = 400 mg, 400 mg KAR5585 single oral, fasted, Cohort 3A, Geo. Mean
[4] = 400 mg, 400 mg KAR5585 single oral, fasted, Cohort 3A, Mean
[5] = 400 mg, 400 mg KAR5585 single oral, fed, Cohort 3B, Geo. Mean
[6] = 400 mg, 400 mg KAR5585 single oral, fed, Cohort 3B, Mean
[7] = 400 mg, Geometric Mean, Cohort 3A (Fasting), 400 mg KAR5585 single oral dose, fasting
[8] = 400 mg, Geometric Mean, Cohort 3B (Fed), 400 mg KAR5585 single oral dose, fed
[9] = 700 mg, 700 mg KAR5585 single oral, fasted, Cohort 4, Geo. Mean
[10] = 700 mg, 700 mg KAR5585 single oral, fasted, Cohort 4, Mean
[11] = 1200 mg, 1200 mg KAR5585 single oral, fasted, Cohort 5, Geo. Mean
[12] = 1200 mg, 1200 mg KAR5585 single oral, fasted, Cohort 5, Mean
[13] = 2000 mg, 2000 mg KAR5585 single oral, fasted, Cohort 6, Geo. Mean
[14] = 2000 mg, 2000 mg KAR5585 single oral, fasted, Cohort 6, Mean

CCOC(=O)[C@@H]1CC2(CCN(c3cc(O[C@H](c4ccc(Cl)cc4-c4ccccc4)C(F)(F)F)nc(N)n3)CC2)CN1 [KAR5585, (S)-ethyl 8-(2-amino-6-((R)-1-(5-chloro-[1,1′-biphenyl]-2-yl)-2,2,2-trifluoroethoxy)pyrimidin-4-yl)-2,8-diazaspiro[4.5]decane-3-carboxylate]
Vd/F ([1]; 200 mg, 200 mg KAR5585 single oral, fasted, Cohort 2, Geo. Mean): 9610 L | Vd/F ([1]; 200 mg, 200 mg KAR5585 single oral, fasted, Cohort 2, Mean): 10300 L | half-life ([1]; 200 mg, t1 (t½, apparent terminal half-life), 200 mg KAR5585 single oral, fasted, Cohort 2, Mean): 3.63 h | Tmax ([1]; 200 mg, tmax, 200 mg KAR5585 single oral, fasted, Cohort 2, Median): 1.78 h | AUC(0-inf) ([1]; 400 mg, AUC0-inf, Geometric Mean, Cohort 3A (Fasting), 400 mg KAR5585 single oral dose, fasting): 288 ng·h/mL | AUC(0-inf) ([1]; 400 mg, AUC0-inf, Geometric Mean, Cohort 3B (Fed), 400 mg KAR5585 single oral dose, fed): 903 ng·h/mL | AUC [1, 3]: 176 ng·h/mL | AUC [1, 4]: 219 ng·h/mL | AUC [1, 5]: 854 ng·h/mL | AUC [1, 6]: 868 ng·h/mL | AUC [1, 7]: 176 ng·h/mL | AUC [1, 8]: 854 ng·h/mL | AUC(0-inf) ([1]; 400 mg, AUC0-∞, 400 mg KAR5585 single oral, fasted, Cohort 3A, Geo. Mean): 288 ng·h/mL | AUC(0-inf) ([1]; 400 mg, AUC0-∞, 400 mg KAR5585 single oral, fasted, Cohort 3A, Mean): 302 ng·h/mL | AUC(0-inf) ([1]; 400 mg, AUC0-∞, 400 mg KAR5585 single oral, fed, Cohort 3B, Geo. Mean): 903 ng·h/mL | AUC(0-inf) ([1]; 400 mg, AUC0-∞, 400 mg KAR5585 single oral, fed, Cohort 3B, Mean): 915 ng·h/mL | concentration at 12 h ([1]; 400 mg, C12, 400 mg KAR5585 single oral, fasted, Cohort 3A, Geo. Mean): 7.4 ng/mL | concentration at 12 h ([1]; 400 mg, C12, 400 mg KAR5585 single oral, fasted, Cohort 3A, Mean): 7.45 ng/mL | concentration at 12 h ([1]; 400 mg, C12, 400 mg KAR5585 single oral, fed, Cohort 3B, Geo. Mean): 19.7 ng/mL | concentration at 12 h ([1]; 400 mg, C12, 400 mg KAR5585 single oral, fed, Cohort 3B, Mean): 21 ng/mL | Cmax [1, 3]: 42 ng/mL | Cmax [1, 4]: 52.8 ng/mL | Cmax [1, 5]: 165 ng/mL | Cmax [1, 6]: 169 ng/mL | Cmax [1, 7]: 42 ng/mL | Cmax [1, 8]: 165 ng/mL | Vd/F [1, 3]: 8100 L | Vd/F [1, 4]: 8330 L | Vd/F [1, 5]: 2730 L | Vd/F [1, 6]: 2780 L | half-life ([1]; 400 mg, t1 (t½, apparent terminal half-life), 400 mg KAR5585 single oral, fasted, Cohort 3A, Geo. Mean): 4.04 h | half-life ([1]; 400 mg, t1 (t½, apparent terminal half-life), 400 mg KAR5585 single oral, fasted, Cohort 3A, Mean): 4.08 h | half-life ([1]; 400 mg, t1 (t½, apparent terminal half-life), 400 mg KAR5585 single oral, fed, Cohort 3B, Geo. Mean): 4.26 h | half-life ([1]; 400 mg, t1 (t½, apparent terminal half-life), 400 mg KAR5585 single oral, fed, Cohort 3B, Mean): 4.45 h | Tmax ([1]; 400 mg, tmax, 400 mg KAR5585 single oral, fasted, Cohort 3A, Median): 2.07 h | Tmax ([1]; 400 mg, tmax, 400 mg KAR5585 single oral, fed, Cohort 3B, Median): 3 h | AUC [1, 9]: 362 ng·h/mL | AUC [1, 10]: 386 ng·h/mL | AUC(0-inf) ([1]; 700 mg, AUC0-∞, 700 mg KAR5585 single oral, fasted, Cohort 4, Geo. Mean): 412 ng·h/mL | AUC(0-inf) ([1]; 700 mg, AUC0-∞, 700 mg KAR5585 single oral, fasted, Cohort 4, Mean): 436 ng·h/mL | concentration at 12 h ([1]; 700 mg, C12, 700 mg KAR5585 single oral, fasted, Cohort 4, Geo. Mean): 9.84 ng/mL | concentration at 12 h ([1]; 700 mg, C12, 700 mg KAR5585 single oral, fasted, Cohort 4, Mean): 10.7 ng/mL | Cmax [1, 9]: 95.2 ng/mL | Cmax [1, 10]: 99.4 ng/mL | Vd/F [1, 9]: 8390 L | Vd/F [1, 10]: 9120 L | half-life ([1]; 700 mg, t1 (t½, apparent terminal half-life), 700 mg KAR5585 single oral, fasted, Cohort 4, Geo. Mean): 3.42 h | half-life ([1]; 700 mg, t1 (t½, apparent terminal half-life), 700 mg KAR5585 single oral, fasted, Cohort 4, Mean): 3.46 h | Tmax ([1]; 700 mg, tmax, 700 mg KAR5585 single oral, fasted, Cohort 4, Median): 1.75 h | AUC [1, 11]: 296 ng·h/mL | AUC [1, 12]: 364 ng·h/mL | AUC(0-inf) ([1]; 1200 mg, AUC0-∞, 1200 mg KAR5585 single oral, fasted, Cohort 5, Geo. Mean): 406 ng·h/mL | AUC(0-inf) ([1]; 1200 mg, AUC0-∞, 1200 mg KAR5585 single oral, fasted, Cohort 5, Mean): 462 ng·h/mL | concentration at 12 h ([1]; 1200 mg, C12, 1200 mg KAR5585 single oral, fasted, Cohort 5, Geo. Mean): 11 ng/mL | concentration at 12 h ([1]; 1200 mg, C12, 1200 mg KAR5585 single oral, fasted, Cohort 5, Mean): 11.8 ng/mL | Cmax [1, 11]: 68.1 ng/mL | Cmax [1, 12]: 83 ng/mL | Vd/F [1, 11]: 14500 L | Vd/F [1, 12]: 16900 L | half-life ([1]; 1200 mg, t1 (t½, apparent terminal half-life), 1200 mg KAR5585 single oral, fasted, Cohort 5, Geo. Mean): 3.4 h | half-life ([1]; 1200 mg, t1 (t½, apparent terminal half-life), 1200 mg KAR5585 single oral, fasted, Cohort 5, Mean): 3.58 h | Tmax ([1]; 1200 mg, tmax, 1200 mg KAR5585 single oral, fasted, Cohort 5, Median): 2 h | AUC [1, 13]: 638 ng·h/mL | AUC [1, 14]: 773 ng·h/mL | AUC(0-inf) ([1]; 2000 mg, AUC0-∞, 2000 mg KAR5585 single oral, fasted, Cohort 6, Geo. Mean): 667 ng·h/mL | AUC(0-inf) ([1]; 2000 mg, AUC0-∞, 2000 mg KAR5585 single oral, fasted, Cohort 6, Mean): 778 ng·h/mL | concentration at 12 h ([1]; 2000 mg, C12, 2000 mg KAR5585 single oral, fasted, Cohort 6, Geo. Mean): 26.2 ng/mL | concentration at 12 h ([1]; 2000 mg, C12, 2000 mg KAR5585 single oral, fasted, Cohort 6, Mean): 37.4 ng/mL | Cmax [1, 13]: 95.1 ng/mL | Cmax [1, 14]: 104 ng/mL | Vd/F [1, 13]: 20600 L | Vd/F [1, 14]: 25100 L | half-life ([1]; 2000 mg, t1 (t½, apparent terminal half-life), 2000 mg KAR5585 single oral, fasted, Cohort 6, Geo. Mean): 4.76 h | half-life ([1]; 2000 mg, t1 (t½, apparent terminal half-life), 2000 mg KAR5585 single oral, fasted, Cohort 6, Mean): 4.84 h | Tmax ([1]; 2000 mg, tmax, 2000 mg KAR5585 single oral, fasted, Cohort 6, Median): 2 h | Vd/F ([1]; range across dose levels, single oral KAR5585): 5680 to 25100 L | half-life ([1]; mean apparent elimination half-life, range across dose levels, single oral KAR5585 100-2000 mg): 1.89 to 4.84 h | Tmax ([1]; median tmax, range across cohorts, single oral 100-2000 mg KAR5585, fasting cohorts): 1.5 to 3 h | time concentrations remained above the LLOQ ([1]; single 100 mg KAR5585, fasting): up to 4 hours | time concentrations remained above the LLOQ ([1]; single 200 mg KAR5585, fasting): up to 12 hours | time concentrations remained above the LLOQ ([1]; single 700 mg KAR5585, fasting): up to 12 hours | time concentrations remained above the LLOQ ([1]; single 1200 mg KAR5585, fasting): up to 12 hours | dose proportionality of AUC0-inf and Cmax (power model, 95% CI of slope) ([1]; single dose range 100 to 2000 mg KAR5585, fasting): dose proportionality was not concluded | tendency to increase QTcF in a dose-dependent manner [2]: Neither the prodrug (KAR5585) nor the active drug (KAR5417) showed any tendency to increase QTcF in a dose-dependent manner
